Read-outs that look alike come from different tables or passages of the source.
Legend:
[1] = biological target: galectin 3 (Mus musculus, UniProt P16110); test: isothermal titration calorimetry of soluble ligand binding to galectin 3; set-up: species or system Murine
[2] = biological target: Murine galectin 3 (Mus musculus, UniProt P16110); settings: Gaussian fit of 10 pN bins
[3] = biological target: Avidin (Gallus gallus, UniProt P02701); settings: cited from earlier work
[4] = biological target: streptavidin (Streptomyces avidinii, UniProt P22629); settings: cited from earlier work
Sequence of streptavidin (P22629 25-183): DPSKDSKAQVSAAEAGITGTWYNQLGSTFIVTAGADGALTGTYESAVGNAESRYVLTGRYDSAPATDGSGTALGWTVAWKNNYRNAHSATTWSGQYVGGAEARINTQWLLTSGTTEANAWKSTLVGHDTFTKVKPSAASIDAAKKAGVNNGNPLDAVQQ

Sequence of Murine galectin 3 (P16110 whole entry): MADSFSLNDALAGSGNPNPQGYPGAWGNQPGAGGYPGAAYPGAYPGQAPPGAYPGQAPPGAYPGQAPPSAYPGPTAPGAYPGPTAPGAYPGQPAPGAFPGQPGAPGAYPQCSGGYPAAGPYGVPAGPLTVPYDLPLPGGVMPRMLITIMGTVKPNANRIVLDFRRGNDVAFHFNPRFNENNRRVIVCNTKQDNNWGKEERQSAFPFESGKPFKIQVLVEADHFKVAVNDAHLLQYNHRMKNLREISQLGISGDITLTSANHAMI
Sequence of Avidin (P02701 25-152): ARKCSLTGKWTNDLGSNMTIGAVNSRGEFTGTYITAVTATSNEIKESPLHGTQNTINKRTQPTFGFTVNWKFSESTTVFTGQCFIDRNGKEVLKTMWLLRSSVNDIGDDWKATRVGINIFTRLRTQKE
Sequence of galectin 3 (P16110 whole entry): as the sequence (P16110 whole entry) above

With `CO[C@@H]1O[C@H](CO)[C@@H](O[C@@H]2O[C@H](CO)[C@H](O)[C@H](O)[C@H]2O)[C@H](O)[C@H]1O` [β-methyl lactoside] as the molecule, how does the “association constant, the affinity measured by isothermal titration calorimetry” value [1] read?
Its value is 6400±100.

Which results are given for `OC[C@H]1O[C@@H](O[C@H]2[C@H](O)[C@@H](O)C(O)O[C@@H]2CO)[C@H](O)[C@@H](O)[C@H]1O` (some centres unmarked) [lactose]?
average rupture force ([2]; Fe^3+ surface immobilization of galectin 3): 71 pN; average rupture force ([2]; Ni^2+ surface immobilization of galectin 3): 72 pN

For `O=C(O)CCCC[C@@H]1SC[C@@H]2NC(=O)N[C@@H]21` [biotin, Biotin], which Ka [3] is on record?
The Ka was 10^13-10^15 M^−1.

And the Ka [4]?
Its Ka is ~10^14 M^−1.

From patent US7598092B2, “Methods, devices, systems and computer program products for stochastic, competitive, force-based analyte detection” (priority 2006, dated 2009)
